Some results are limits rather than exact numbers.

What is called EC50 is the concentration giving half of the maximal effect.

For assay [1], the target named is T1, LXRβ ligand-binding domain (Homo sapiens, UniProt P55055, DUP175-175).
T1 construct: amino acids 156-461; NP009052; made in house; host or cells: E. coli
T1 sequence (P55055 with tags, fused parts or gaps DUP175-175 limits assumed): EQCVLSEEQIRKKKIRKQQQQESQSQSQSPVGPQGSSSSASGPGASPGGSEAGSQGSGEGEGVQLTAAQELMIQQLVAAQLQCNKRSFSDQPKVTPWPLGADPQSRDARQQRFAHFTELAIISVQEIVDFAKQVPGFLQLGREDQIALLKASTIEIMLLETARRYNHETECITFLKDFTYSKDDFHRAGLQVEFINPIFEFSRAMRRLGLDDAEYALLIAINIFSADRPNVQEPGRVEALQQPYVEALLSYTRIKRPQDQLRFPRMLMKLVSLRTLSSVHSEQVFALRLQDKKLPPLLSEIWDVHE
The experiment in a line: TR-FRETβ activity assay (NCoA3 coactivator peptide recruitment). It is filed as biochemical. The note with it: TR-FRET, 1 μM 24(S)-25-epoxycholesterol prestimulation; read-out: FRETβ (EC50 range). The procedure: (§1) The tested compounds were usually dissolved, tested and stored as 20 mM stock solutions in DMSO. Since sulfonyl acetic acid derivatives tend to decarboxylate under these conditions, these stock solutions were prepared, tested and stored as 20 mM DMSO stock solutions containing 100 mM trifluoroacetic Acid (5 equivalents). Sulfonyl acetic acid derivatives are shelf stable as solid at rt for long time as reported by Griesbrecht et al. (Synlett 2010:374) or Faucher et al. (J. Med. Chem. 2004; 47:18).
Recombinant GST-LXRPβ ligand-binding domain (LBD; amino acids 156-461; NP009052; SEQ ID NO:4) was expressed in E. coli and purified via gluthatione-sepharose affinity chromatography. N-terminally biotinylated NCoA3 coactivator peptide (SEQ ID NO:7) was chemically synthesized (Eurogentec). Assays were done in 384 well format (final assay volume of 25 μL/well) in a Tris/HCl buffer (pH 6.8) containing KCl, bovine serum albumin, Triton-X-100 and 1 μM 24(S)-25-epoxycholesterol as LXR-prestimulating agonist. Assay buffer was provided and test articles (potential LXR inverse agonists) were titrated to yield final assay concentrations of 50 μM, 16.7 μM, 5.6 μM, 1.9 μM, 0.6 μM, 0.2 μM, 0.07 μM, 0.02 μM, 0.007 μM, 0.002 μM with one vehicle control. Finally, a detection mix was added containing anti GST-Tb cryptate (CisBio; 610SAXLB) and Streptavidin-XL665 (CisBio; 610SAXLB) as fluorescent donor and acceptor, respectively, as well as the coactivator peptide and LXRβ-LBD protein (SEQ ID NO:4). The reaction was mixed thoroughly, equilibrated for 1 h at 4° C. and vicinity of LXRβ and coactivator peptide was detected by measurement of fluorescence in a VictorX4 multiplate reader (PerkinElmer Life Science) using 340 nm as excitation and 615 and 665 nm as emission wavelengths. Assays were performed in triplicates.
Final Assay Concentrations of Components:
240 mM KCl, 1 μg/μL BSA, 0.002% Triton-X-100, […] anti GST-Tb cryptate, 2.5 ng/μL Streptavidin-XL665, coactivator peptide (400 nM), LXRβ protein (530 μg/mL, i.e. 76 nM).

The next assay deals with T2, full length (FL) LXRα (Homo sapiens, UniProt Q13133).
T2 construct: the full length (FL) proteins of LXRα (amino acids 1-447); NP005684; expressed in transfected cells; host or cells: HEK293
T2 sequence (Q13133 1-447): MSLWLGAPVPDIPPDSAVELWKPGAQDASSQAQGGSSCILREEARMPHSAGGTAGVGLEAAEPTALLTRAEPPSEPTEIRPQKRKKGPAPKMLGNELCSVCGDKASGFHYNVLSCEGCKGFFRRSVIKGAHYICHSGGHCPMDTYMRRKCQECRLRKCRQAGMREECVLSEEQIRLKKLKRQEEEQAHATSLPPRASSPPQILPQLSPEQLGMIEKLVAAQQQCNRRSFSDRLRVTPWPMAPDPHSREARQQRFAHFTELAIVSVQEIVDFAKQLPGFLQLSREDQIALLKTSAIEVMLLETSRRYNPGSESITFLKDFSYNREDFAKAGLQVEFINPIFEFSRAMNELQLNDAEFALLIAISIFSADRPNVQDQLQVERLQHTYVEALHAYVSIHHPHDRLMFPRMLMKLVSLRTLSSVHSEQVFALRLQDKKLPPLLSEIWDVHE
The experiment in a line: LXR Gal4 reporter transient transfection assay (FL-M2H Gal4α). It is filed as cell-based. The conditions noted are these: HEK293 cells, full length LXRα; read-out: FL-M2H Gal4α (EC50 range). The procedure:
as §1
(§2) LXR Gal4 Reporter Transient Transfection Assays
(§3) LXRα and LXRβ activity status was determined via detection of interaction with coactivator and corepressor proteins in mammalian two-hybrid experiments (M2H). For this, via transient transfection the full length (FL) proteins of LXRα (amino acids 1-447; NP005684; SEQ ID NO:1) or LXRβ-(amino acids 1-461; NP009052; SEQ ID NO:2) or the ligand-binding domains (LBD) of LXRα (amino acids 155-447 SEQ ID NO:3) or LXRβ (amino acids 156-461; SEQ ID NO:4) were expressed from pCMV-AD (Stratagene) as fusions to the transcriptional activation domain of NFkB. As cofactors, domains of either the steroid receptor coactivator 1 (SRC1; amino acids 552-887; SEQ ID NO:5) or of the corepressor NCoR (amino acids 1906-2312; NP006302; SEQ ID NO:6) were expressed as fusions to the DNA binding domain of the yeast transcription factor GAL4 (from pCMV-BD; Stratagene). Interaction was monitored via activation of a coexpressed Firefly Luciferase Reporter gene under control of a promoter containing repetitive GAL4 response elements (vector pFRLuc; Stratagene). Transfection efficiency was controlled via cotransfection of constitutively active pRL-CMV Renila reniformis luciferase reporter (Promega). HEK293 cells were grown in minimum essential medium (MEM) with 2 mM L-glutamine and Earle's balanced salt solution supplemented with 8.3% fetal bovine serum, 0.1 mM non-essential amino acids, 1 mM sodium pyruvate, at 37° C. in 5% CO2. 3.5×10^4 cells/well were plated in 96-well cell culture plates in growth medium supplemented with 8.3% fetal bovine serum for 16-20 h to ˜90% confluency. For transfection, medium was taken off and LXR and cofactor expressing plasmids as well as the reporter plasmids are added in 30 μL OPTIMEM/well including polyethylene-imine (PEI) as vehicle. Typical amounts of plasmids transfected/well: pCMV-AD-LXR (5 ng), pCMV-BD-cofactor (5 ng), pFR-Luc (100 ng), pRL-CMV (0.5 ng). Compound stocks were prepared in DMSO, prediluted in MEM to a total volume of 120 μL, and added 4 h after addition of the transfection mixture (final vehicle concentration not exceeding 0.2%). Cells were incubated for additional 16 h, lysed for 10 min in 1× Passive Lysis Buffer (Promega) and Firefly and Renilla luciferase activities were measured sequentially in the same cell extract using buffers containing D-luciferine and coelenterazine, respectively. Measurements of luminescence were done in a BMG-luminometer.

The next assay addresses T3, full length (FL) LXRβ (Homo sapiens, UniProt P55055, DUP175-175).
T3 construct: the full length (FL) proteins of LXRα (amino acids 1-447); NP005684; NP009052; expressed in transfected cells; host or cells: HEK293
T3 sequence (P55055 with tags, fused parts or gaps DUP175-175): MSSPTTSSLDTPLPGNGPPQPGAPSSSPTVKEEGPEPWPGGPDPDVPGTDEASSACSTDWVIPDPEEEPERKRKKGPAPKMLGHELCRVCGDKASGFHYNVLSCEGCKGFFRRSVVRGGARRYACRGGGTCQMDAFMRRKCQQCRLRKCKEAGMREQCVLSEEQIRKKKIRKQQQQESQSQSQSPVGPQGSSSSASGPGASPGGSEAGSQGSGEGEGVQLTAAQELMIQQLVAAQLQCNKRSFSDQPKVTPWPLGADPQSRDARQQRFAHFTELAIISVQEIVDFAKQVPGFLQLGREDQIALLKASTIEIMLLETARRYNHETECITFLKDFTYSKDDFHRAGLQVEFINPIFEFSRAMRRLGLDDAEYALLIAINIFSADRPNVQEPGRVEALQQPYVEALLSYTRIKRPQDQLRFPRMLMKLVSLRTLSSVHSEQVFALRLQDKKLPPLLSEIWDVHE
The experiment in a line: LXR Gal4 reporter transient transfection assay (FL-M2H Gal4β). It is filed as cell-based. The note with it: HEK293 cells, full length LXRβ; read-out: FL-M2H Gal4β (EC50 range). How it is done:
as §1, §2, §3

`Cc1ccc(S(=O)(=O)n2c(-c3cccc(-c4ccc(C(C)(C)C(=O)O)c(S(C)(=O)=O)c4)c3)c(-c3ccsc3C#N)c3cc(F)ccc32)cc1` [2/18]: the results for the EC50 (in assay [1]; at full length (FL) LXRα; at full length (FL) LXRβ) were 100 to 1000 nM, 100 to 1000 nM and less than 100 nM, respectively.

Regarding `Cc1ccc(S(=O)(=O)n2c(-c3cccc(C4(C)CC4C(=O)O)c3)c(-c3ccsc3C#N)c3cc(F)ccc32)cc1` (stereo not drawn) [3/1], the EC50 (in assay [1]; on full length (FL) LXRα; on full length (FL) LXRβ) was 100 to 1000 nM throughout.

For `Cc1ccc(S(=O)(=O)n2c(-c3cccc(C4(C)CC4C(=O)O)c3)c(-c3ccsc3C#N)c3cc(F)ccc32)cc1` (stereo not drawn) [3/2], the EC50 in assay [1] is 1000 to 10000 nM; at full length (FL) LXRα, 100 to 1000 nM; at full length (FL) LXRβ, less than 100 nM.

As for `COc1sccc1-c1c(-c2cccc(N3CC(C(=O)O)C3)c2)n(S(=O)(=O)c2ccc(C)cc2)c2ccc(F)cc12` [3/3], the EC50 in assay [1] was in the range of 1000 to 10000 nM; on full length (FL) LXRα it was 100 to 1000 nM; on full length (FL) LXRβ, 100 to 1000 nM.

Regarding `Cc1ccc(S(=O)(=O)n2c(-c3cccc(N4CC(C(=O)O)C4)c3)c(-c3ccsc3C(F)F)c3cc(F)ccc32)cc1` [3/4], the half-maximal effective concentration (EC50) was 100 to 1000 nM in assay [1], 100 to 1000 nM on full length (FL) LXRα and less than 100 nM on full length (FL) LXRβ.

In the case of `Cc1ccc(S(=O)(=O)n2c(-c3cccc(N4CC(C(=O)O)C4)c3)c(-c3ccsc3C=O)c3cc(F)ccc32)cc1` [3/5], the EC50 (in assay [1]; on full length (FL) LXRα; at full length (FL) LXRβ) was 100 to 1000 nM in each case.

With `COCc1sccc1-c1c(-c2cccc(N3CC(C(=O)O)C3)c2)n(S(=O)(=O)c2ccc(C)cc2)c2ccc(F)cc12` [3/6], the concentration giving a half-maximal response (EC50) in assay [1] lay in the range of 1000 to 10000 nM; on full length (FL) LXRα it was 100 to 1000 nM; on full length (FL) LXRβ, 100 to 1000 nM.

Take `CCc1ccc(S(=O)(=O)n2c(-c3cccc(N4CC(C(=O)O)C4)c3)c(-c3ccsc3C#N)c3cc(F)ccc32)cc1` [3/10]: the figures for the half-maximal effective concentration (EC50) (in assay [1]; at full length (FL) LXRα; at full length (FL) LXRβ) were 100 to 1000 nM, 100 to 1000 nM and less than 100 nM, respectively.

On to `N#Cc1sccc1-c1c(-c2cccc(N3CC(C(=O)O)C3)c2)n(S(=O)(=O)c2ccc3c(c2)CCC3)c2ccc(F)cc12` [3/12], for which the EC50 in assay [1] was 100 to 1000 nM; on full length (FL) LXRα, less than 100 nM; at full length (FL) LXRβ, less than 100 nM.

Take `N#Cc1sccc1-c1c(-c2cccc(N3CC(C(=O)O)C3)c2)n(S(=O)(=O)c2ccc3ccccc3c2)c2ccc(F)cc12` [3/13]: the figures for the EC50 (in assay [1]; on full length (FL) LXRα; on full length (FL) LXRβ) were 1000 to 10000 nM, less than 100 nM and less than 100 nM, respectively.

As for `Cc1ccc(S(=O)(=O)n2c(-c3cccc(N4CC(C(=O)O)C4)c3)c(-c3ccsc3C#N)c3cc(F)ccc32)c(F)c1` [3/14], the EC50 in assay [1] was in the range of 1000 to 10000 nM; at full length (FL) LXRα it was 100 to 1000 nM; on full length (FL) LXRβ, 100 to 1000 nM.

On to `CC1CCN(S(=O)(=O)n2c(-c3cccc(-c4ccc(C(=O)O)cc4Cl)c3)c(-c3ccsc3C#N)c3cc(F)ccc32)CC1` [3/21], for which the EC50 in assay [1] is 100 to 1000 nM; at full length (FL) LXRα it was less than 100 nM; at full length (FL) LXRβ it was less than 100 nM.

On to `[2H]c1c([2H])c(S(=O)(=O)n2c(-c3cccc(-c4ccc(C(=O)O)cc4Cl)c3)c(-c3ccsc3C#N)c3cc(F)ccc32)c([2H])c([2H])c1C([2H])([2H])[2H]` [3/22], for which the concentration for a half-maximal effect (EC50) (in assay [1]; on full length (FL) LXRα; at full length (FL) LXRβ) was less than 100 nM each time.

As for `Cc1cc(S(=O)(=O)n2c(-c3cccc(-c4ccc(C(=O)O)cc4Cl)c3)c(-c3ccsc3C#N)c3cc(F)ccc32)ccc1F` [3/23], the 50% effective concentration (EC50) in assay [1] is 100 to 1000 nM; at full length (FL) LXRα, less than 100 nM; on full length (FL) LXRβ, less than 100 nM.

For `Cc1ccc(S(=O)(=O)n2c(-c3cccc(N4CC(C(=O)O)C4)c3)c(-c3sccc3C#N)c3cc(F)ccc32)cc1` [3/25], the half-maximal effective concentration (EC50) was 1000 to 10000 nM in assay [1], 100 to 1000 nM at full length (FL) LXRα and less than 100 nM at full length (FL) LXRβ.

Consider `Cc1ccc(S(=O)(=O)n2c(-c3cccc(N4CC(C(=O)O)C4)c3)c(-c3ccoc3C#N)c3cc(F)ccc32)cc1` [3/26], for which the EC50 was 1000 to 10000 nM in assay [1], 100 to 1000 nM on full length (FL) LXRα and less than 100 nM at full length (FL) LXRβ.

(Values after US11618747B2, “LXR modulators with bicyclic core moiety” (OrsoBio, Inc., priority 2018, dated 2023).)
